Patent US20240425475A1, “COMPOUND BASED ON QUINAZOLINE-SUBSTITUTED GLUTARIMIDE SKELETON AND USE THEREOF” (GLUETACS THERAPEUTICS (SHANGHAI) CO., LTD., priority 2022, published 2024)
pIC50: −log10 of the molar value.

Columns and labels:
[1] = tested on: Human cell line: Kasumi-1; assay: Half inhibitory concentration (IC50) against tumor cells, CCK-8 cell viability; format: cell-based; details: Kasumi-1 cells, 72 h treatment
Experimental: (§1) The tumor cells used herein were cultured in a cell culture medium listed in table 2 at 37° C. in an incubator with 5% CO2. Prior to experimentation, all cells used were correctly identified by STR profiling, and tested negative for mycoplasma through routine screenings. [table] Determination of Half Inhibitory Concentration (IC50) of the Compounds Against Tumor Cells: IC50 values of the compounds of the present disclosure (including the compounds in Table 1, and compounds of examples 1-104) were measured using the Meilun Cell Counting Kit-8 kit from Dalian Meilun Biotech Co., Ltd. Assay details are as follows: tumor cells were seeded in a 96-well plate at a density listed in Table 3. After 24 h, 100 μL of the inoculated cells were treated with 0.5 μl of the compounds of the present disclosure (including the compounds in Table 1, and compounds of examples 1-104) at 10 different successively decreasing concentrations (starting at the highest concentration of […]; 5-fold serial dilutions). After the cells were treated with the compounds of the present disclosure for a period of time, cell viability was measured according to the instructions provided with the CCK-8 kit. DMSO served as the negative control, and corresponding commercial immunomodulatory drug Avadomide (CC-122) was used as the positive control, both of which treated the cells using the same protocol as that of the compounds of the present disclosure. The growth inhibition of the compounds of the present disclosure on cells was plotted by Prism Graphpad software, and the IC50 values of the compounds of the present disclosure were calculated therefrom. [table] We tested the activities of the compounds of the present invention (including the compounds in Table 1 and Examples 1-104 compounds) in tumor cells through a dose-dependent manner. The cells were treated with the compounds of the present invention at 10 different successively decreasing concentrations (starting at the highest concentration of 10 μM; 5-fold serial dilutions) for 72 h or 96 h, and then the cell viability determination was performed in accordance with CCK-8 reagent operating instructions.

[2] = tested on: Human B-lymphoma cell: Ramos; assay: as above; format: cell-based; details: 96 h treatment
Experimental: as §1

[3] = tested on: Human Burkitt's lymphoma cell line: Daudi; assay: as above; format: cell-based; details: 96 h treatment
Experimental: as §1

[4] = tested on: Human colon cancer cell: SW620; assay: as above; format: cell-based; details: SW-620, 96 h treatment
Experimental: as §1

[5] = tested on: Human multiple myeloma cells: MM.1S; assay: as above; format: cell-based; details: MM1.S, MM.1S cells, 72 h treatment
Experimental: as §1

[6] = tested on: Human dexamethasone-resistant multiple myeloma cell line: MM.1R; assay: as above; format: cell-based; details: MM.1R cells, 72 h treatment
Experimental: as §1

[7] = tested on: Human diffuse large B-cell lymphoma cell line: TMD8; assay: as above; format: cell-based; details: 96 h treatment
Experimental: as §1

[8] = target: human Cereblon WT GST-tagged protein (Homo sapiens (Human), UniProt Q96SW2); assay: CRBN-binding affinity, CEREBLON BINDING kit (HTRF); details: HTRF inhibitory activity, binding to CRBN
Source text: Determination of CRBN-Binding Affinity of Compounds
The CEREBLON BINDING kits (specification: 10,000 tests; product number: Catalog #64BDCRBNPEH; CISBIO company) was used to determine the CRBN binding ability of the compounds to be tested through a HTRF method (homogeneous time-resolved fluorescence). The specific methods are as follows: • 1. According to the instructions of the CEREBLON BINDING kits, the compounds to be tested of the present invention and lenalidomide were serially diluted using diluent #9 (1×) solution to obtain a final concentration of 2 μM for both the tested compounds and lenalidomide solution. • 2.2.5 μL of the above 2 μM of the tested compounds and lenalidomide solution, as well as the same volume of diluent #9 (1×) solution (solvent control group, Std0) were taken and added to each well of a 96-well plate, respectively. Then, 2.5 μL of (human Cereblon WT GST-tagged protein) solution was added to each well. Finally, 5 μL of the uniformly mixed thalidomide-Red reagent and GST Eu antibody working solution were added to each of the above wells. The final concentration of the tested compounds and lenalidomide in each well is 0.5 μM. • 3. The blank control wells were sequentially added with 2.5 μL of diluent #9 (1×) solution, 2.5 μL of PROTAC binding buffer, and 5 μL of uniformly mixed thalidomide-Red reagent and GST Eu antibody working solution. • 4. After sealing and incubating the solutions in the above wells at room temperature for 3 hours, the absorbance values at emission wavelengths of 620 nm and 665 nm were detected by the HTRF method using a Spark microplate reader (V3.1 SP1).
The corresponding CRBN binding inhibition rate was calculated using the following method: […]
Note: OD 665 nmcompound is the absorbance value of each well of the compounds to be tested of the present disclosure at an emission wavelength of 665 nm.
OD 620 nmcompound is the absorbance value of each well of the compounds to be tested of the present disclosure at an emission wavelength of 620 nm.
OD 665 nmcontrol is the absorbance value of the blank control well at an emission wavelength of 665 nm.
OD 620 nmcontrol is the absorbance value of the blank control well at an emission wavelength of 620 nm.
OD 665 nmstd0 is the absorbance value of the solvent control well at an emission wavelength of 665 nm.
OD 620 nmstd0 is the absorbance value of the solvent control well at an emission wavelength of 620 nm.

Sequence of human Cereblon WT GST-tagged protein (Q96SW2 whole entry): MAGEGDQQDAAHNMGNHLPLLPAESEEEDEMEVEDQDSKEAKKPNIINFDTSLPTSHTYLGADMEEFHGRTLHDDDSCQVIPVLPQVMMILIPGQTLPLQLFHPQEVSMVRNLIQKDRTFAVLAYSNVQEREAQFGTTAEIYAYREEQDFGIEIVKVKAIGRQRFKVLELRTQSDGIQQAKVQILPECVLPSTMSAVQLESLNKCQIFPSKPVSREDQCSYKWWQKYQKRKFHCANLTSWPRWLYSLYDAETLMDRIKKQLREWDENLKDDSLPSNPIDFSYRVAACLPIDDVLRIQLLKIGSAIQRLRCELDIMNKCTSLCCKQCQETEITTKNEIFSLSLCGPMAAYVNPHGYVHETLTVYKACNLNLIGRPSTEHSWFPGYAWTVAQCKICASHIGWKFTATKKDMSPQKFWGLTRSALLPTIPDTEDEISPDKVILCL

| SMILES | pIC50 [1] | pIC50 [2] | pIC50 [3] | pIC50 [4] | pIC50 [5] | pIC50 [6] | pIC50 [7] | pIC50 [8] |
| --- | --- | --- | --- | --- | --- | --- | --- | --- |
| Cc1nc2cccc(N)c2c(=O)n1C1CCC(=O)NC1=O (centres unmarked) [CC-122, Avadomide, reference compound] | < 5.00 | 5.88 | 5.78 | < 5.00 | 7.33 | 6.33 | 6.05 |  |
| Cc1nc2cccc(SCCCN3CCN(CC45CC6CC(CC(C6)C4)C5)CC3)c2c(=O)n1C1CCC(=O)NC1=O (centres unmarked) [GT-03235, 3-(5-((3-(4-(((1s,3s)-adamantan-1-yl)methyl)piperazin-1-yl)propyl)thio)-2-methyl-4-oxoquinazolin-3(4H)-yl)piperidine-2,6-dione] |  | 6.40 |  |  |  |  |  | 5.62 |
| Cc1nc2cccc(NCCN3CCN(CCC45CC6CC(CC(C6)C4)C5)CC3)c2c(=O)n1C1CCC(=O)NC1=O (centres unmarked) [GT-03301, 3-(5-((2-(4-(2-((3r,5r,7r)-adamantan-1-yl)ethyl)piperazin-1-yl)ethyl)amino)-2-methyl-4-oxoquinazolin-3(4H)-yl)piperidine-2,6-dione] | 6.98 | 6.78 | 6.81 | 7.45 | 7.10 | 7.48 | 6.73 | 5.76 |
| Cc1nc2cccc(SCCCN3CCN(CCC45CC6CC(CC(C6)C4)C5)CC3)c2c(=O)n1C1CCC(=O)NC1=O (centres unmarked) [GT-03306, 3-(5-((3-(4-(2-((3r,5r,7r)-adamantan-1-yl)ethyl)piperazin-1-yl)propyl)thio)-2-methyl-4-oxoquinazolin-3(4H)-yl)piperidine-2,6-dione] | 7.65 | 7.05 | 7.35 | 7.73 | 7.53 | 7.90 | 7.06 | 5.80 |
| Cc1nc2cccc(SCCCN3CCN(C(c4ccc(F)cc4)c4ccc(F)cc4)CC3)c2c(=O)n1C1CCC(=O)NC1=O (centres unmarked) [GT-03387, 3-(5-((3-(4-(bis(4-fluorophenyl)methyl)piperazin-1-yl)propyl)thio)-2-methyl-4-oxoquinazolin-3(4H)-yl)piperidine-2,6-dione] |  | 6.31 | 6.54 |  |  | 6.56 | 6.69 |  |
| Cc1nc2cccc(SCCCN3CCN(C(c4ccc(Cl)cc4)c4ccc(Cl)cc4)CC3)c2c(=O)n1C1CCC(=O)NC1=O (centres unmarked) [GT-03697, 3-(5-((3-(4-(bis(4-chlorophenyl)methyl)piperazin-1-yl)propyl)thio)-2-methyl-4-oxoquinazolin-3(4H)-yl)piperidine-2,6-dione] | 6.16 | 6.19 | 6.26 |  |  | 6.69 |  |  |
| Cc1nc2cccc(N3CC(C)N(CCC45CC6CC(CC(C6)C4)C5)C(C)C3)c2c(=O)n1C1CCC(=O)NC1=O (centres unmarked) [GT-04246, 3-(5-(4-(2-((3r,5r,7r)-adamantan-1-yl)ethyl)-3,5-dimethylpiperazin-1-yl)-2-methyl-4-oxoquinazolin-3(4H)-yl)piperidine-2,6-dione] |  |  |  | 6.41 |  |  | 6.38 |  |
